According to a melting point compilation (Tetko et al.; mined from patent text by program, amines drawn as free bases though some values may be those of a salt):

Q: For `COc1ccc(N(c2ccccc2)c2ccc(-c3ccc(-c4ccc(N(c5ccccc5)c5ccc(OC)cc5C)cc4)cc3)cc2)c(C)c1`, which melting point is on record?
A: Its melting point is 181 to 183 °C.

Q: With `CCCc1c(OCCCC(=O)NC(C)CCCc2cccnc2)ccc(C(C)=O)c1O` (stereo unspecified) as the molecule, how does the melting point read?
A: The melting point was 97 to 99 °C.

Q: Which melting point does the source give for `OC(COCc1ncc[nH]1)c1ccc2sccc2c1` (stereo unspecified) here?
A: The melting point was 128 to 129 °C.

Q: For `CC(C)(C)OC(=O)[C@H]1C[C@H](C(=O)Nc2ccccc2)[C@@H](c2ccccc2)N1C(=O)CNC(=O)Nc1cccc(C(=O)O)c1` (racemic), which melting point is on record?
A: The melting point was 160 °C.

Q: For `Cc1ncc([N+](=O)[O-])n1CCN1C(=O)CCC1=O`, which melting point is on record?
A: Its melting point is 147 to 148 °C.

Q: For `O=C(O)COc1cc2c(c(Cl)c1Cl)C(=O)C(c1ccccc1)(c1ccccc1)C2`, which melting point is on record?
A: Its melting point is 251 to 252 °C.

Q: Which melting point does the source give for `O=C(N1CCCC1)N1Cc2c(-c3noc(C4CC4)n3)ncn2-c2cccc(F)c21` here?
A: The melting point was 220 to 222 °C.

Q: Which melting point does the source give for `CC(=O)OC1CSC(Oc2ccnc(-c3ccc(F)nc3)c2)C(OC(C)=O)C1OC(C)=O` (stereo unspecified) here?
A: The melting point was 151 °C.

Q: For `CCOC(=O)Cn1c(C(=O)NCc2nncn2-c2sc(CC)cc2C(=O)c2ccccc2Cl)cc2ccccc21`, which melting point is on record?
A: Its melting point is 158 to 160 °C.

Q: For `CN(C)c1ccc(C2=CCC(C)(C)c3cc(C(O)C#Cc4ccc(C(=O)O)cc4)ccc32)cc1` (stereo unspecified), which melting point is on record?
A: The melting point was 91 °C.

Q: With `CCCNC(=O)CCCc1ccc2c(c1)c(Cc1ccc(C(=O)O)cc1OC)cn2CCC` as the molecule, how does the melting point read?
A: Its melting point is 143 to 144 °C.

Q: Which melting point does the source give for `COc1ccc(-n2ncc(-c3ccc(S(C)(=O)=O)cc3)c(-c3ccc(F)cc3)c2=O)cc1F` here?
A: The melting point was 97 to 101 °C.

Q: Which melting point does the source give for `O=C(CCCCCc1cccc2cncn12)NO` here?
A: The melting point was 138 to 140 °C.

Q: With `CC(C)C[C@H](NC(=O)[C@H](Cc1c[nH]cn1)NC(=O)C(CC(=O)NCCc1ccccc1)Cc1cccc2ccccc12)[C@@H](O)CCO` (stereo partly specified) as the molecule, how does the melting point read?
A: Its melting point is 87 to 92 °C.

Q: For `O=C(O)c1cccc(-c2cc(-c3ccc(Cl)cc3)on2)c1`, which melting point is on record?
A: Its melting point is 293 to 295 °C.

Q: With `Cc1cccc(C(N)=O)c1NS(=O)(=O)c1nc2scc(C)n2n1` as the molecule, how does the melting point read?
A: The melting point was 217 to 218 °C.

Q: Which melting point does the source give for `CCCCCCCCCCCCCCCCCNC(=O)OC[C@@H]1CO[C@@H](COC(=O)NCc2ccccn2)C1` (relative stereo) here?
A: The melting point was 52.7 to 54.8 °C.

Q: Which melting point does the source give for `Cc1ccc(S(=O)(=O)NCC(NS(=O)(=O)c2ccc(C)cc2)c2ccccc2)cc1` (stereo unspecified) here?
A: Its melting point is 148 to 149 °C.

Q: For `O=C1C2CCN(CC2)C1Cc1ccc(-c2ccc(F)cc2)cc1` (stereo unspecified), which melting point is on record?
A: The melting point was 122 to 123 °C.

Q: Which melting point does the source give for `NCC1Cc2cc(F)cc(-c3ccncc3)c2O1` (stereo unspecified) here?
A: The melting point was 170 to 171 °C.

Q: Which melting point does the source give for `CC[C@@H](c1ccccc1)N(Cc1ccc(CN)cc1)S(=O)(=O)c1ccc(Cl)cc1` here?
A: The melting point was 108 to 110 °C.

Q: Which melting point does the source give for `O=C(Nc1ccc2c(c1)CCC2=O)c1cc(Cl)ccc1Cl` here?
A: Its melting point is 218 to 221 °C.

Q: Which melting point does the source give for `O=S1(=O)CCN2CCCC(c3ccc(Oc4cccc(Cl)c4)cc3)C2=N1` (stereo unspecified) here?
A: The melting point was 165 to 167 °C.

Q: Which melting point does the source give for `CCOC(=O)C1Cc2ccccc2N1C(=O)C(C)Br` (stereo unspecified) here?
A: The melting point was 101 to 103 °C.

Q: With `COC(=O)c1ccc(OCc2ccccc2)cn1` as the molecule, how does the melting point read?
A: Its melting point is 90 to 90.5 °C.

Q: With `COc1cc2c(c(Cl)c1Cl)C(=O)CC2` as the molecule, how does the melting point read?
A: Its melting point is 154 to 156 °C.

Q: For `O=c1[nH]c2c([nH]c1=O)C(N1CCOCC1)c1ccccc1-2` (stereo unspecified), which melting point is on record?
A: Its melting point is 265 to 267 °C.

Q: Which melting point does the source give for `CC(=O)SCC(CC(C)C)C(=O)Nc1cccc(C(=O)O)c1C` (stereo unspecified) here?
A: The melting point was 154 to 156 °C.

Q: For `CCCCc1ncc(C/C=C/C(N)(Cc2cccs2)C(=O)O)n1Cc1ccc(C(=O)O)cc1` (stereo unspecified), which melting point is on record?
A: The melting point was 223 to 224 °C.

Q: Which melting point does the source give for `CCOC(=O)c1c(N(C)C)cc(C)c([N+](=O)[O-])c1Cl` here?
A: Its melting point is 76 °C.

Q: With `COC(=O)[C@@]12CN(Cc3ccccc3)C[C@@H]1[C@@](O)(c1cccc(OC)c1)CC[C@H]2c1ccccc1` (racemic) as the molecule, how does the melting point read?
A: The melting point was 118 °C.

Q: For `Cc1ccc(-c2c(C#N)cccc2C#N)cc1`, which melting point is on record?
A: Its melting point is 184 to 186 °C.

Q: Which melting point does the source give for `O=c1cc(-c2cccs2)oc2cccc(OCCOc3ccccc3)c12` here?
A: The melting point was 173 to 174 °C.

Q: For `Cc1cc2c(-c3ccccc3Cl)c(NC(=O)Nc3cccc([N+](=O)[O-])c3)c(=O)n(C)c2cc1C`, which melting point is on record?
A: The melting point was 190 to 192 °C.

Q: Which melting point does the source give for `CS(=O)(=O)c1ccc(-c2nc(C(F)(F)F)nc(Cl)c2-c2ccc(Cl)cc2)cc1` here?
A: Its melting point is 188 to 190 °C.

Q: Which melting point does the source give for `OCc1c(-c2ccc(O)cc2)nnn1-c1ccc(C(F)(F)F)cc1Cl` here?
A: Its melting point is 181 to 182 °C.

Q: With `CCCCCCc1cc2c(cc1O)C(=O)CCC2` as the molecule, how does the melting point read?
A: Its melting point is 125 °C.

Q: For `Cc1[nH]c(C(=O)N2CCC(C(=O)O)CC2)c(C)c1-c1nc2ccc(C(=O)c3ccccc3)cc2[nH]1`, which melting point is on record?
A: Its melting point is 267 to 271 °C.

Q: With `S=C(Nc1ccc(Cl)cc1)NC1CC2C3CC4C2C4C13` (stereo unspecified) as the molecule, how does the melting point read?
A: The melting point was 168 to 170 °C.

Q: Which melting point does the source give for `CCOC(=O)c1cn(-c2ncns2)c2nc(Cl)c(F)cc2c1=O` here?
A: The melting point was 203 to 206 °C.

Q: With `O=[N+]([O-])C=C(NCCSCc1ncccc1Br)NCCSCc1ncccc1Br` as the molecule, how does the melting point read?
A: The melting point was 122 to 123 °C.

Q: For `O=Cc1c2n(c3ccc(Cl)cc13)CCC2`, which melting point is on record?
A: The melting point was 179 to 180 °C.

Q: Which melting point does the source give for `CC1(C)COc2cc(Cl)cc(Cl)c2C(O)(c2ccccn2)C1` (stereo unspecified) here?
A: Its melting point is 156 °C.

Q: For `O=C(O)c1ccc(OCCNC(=O)C2Cc3ccccc3N2S(=O)(=O)c2ccc(-c3cccc(C(F)(F)F)c3)cc2)cc1Cl` (stereo unspecified), which melting point is on record?
A: The melting point was 104 to 108 °C.

Q: Which melting point does the source give for `CN1C(=O)CC[C@]2(C)c3ccc(-c4cccc5cnccc45)cc3CC[C@@H]12` here?
A: Its melting point is 182 to 184 °C.

Q: For `Cc1cccc(-c2n[nH]cc2-c2ccc(F)c(-c3ccc(S(N)(=O)=O)cc3)c2)n1`, which melting point is on record?
A: The melting point was 115 to 118 °C.

Q: For `Cn1cc(-c2cccc(N3CCc4c(cc5n4CCCC5)C3=O)c2CO)nc(Nc2ccc3c(c2)CNCC3)c1=O`, which melting point is on record?
A: The melting point was 218 to 220 °C.

Q: For `O=C(Nc1cccc(C(F)(F)F)c1)C(=O)N1CCC(Cc2ccc(F)cc2)CC1`, which melting point is on record?
A: Its melting point is 113 to 115 °C.

Q: With `COC(=O)C1(F)C(=O)N(C)C(=O)NC1O` (stereo unspecified) as the molecule, how does the melting point read?
A: Its melting point is 160 to 161 °C.

Q: With `CS(=O)(=O)N(C(=O)OCc1ccccc1)c1cc(OC[C@@H]2CO2)ccc1OCc1ccccc1` as the molecule, how does the melting point read?
A: Its melting point is 78 to 80 °C.

Q: Which melting point does the source give for `COC(=O)Cc1ccc(OCCNC(=O)C2Cc3ccccc3N2S(=O)(=O)c2ccc(-c3cc(C(F)(F)F)ccc3Cl)cc2)cc1` (stereo unspecified) here?
A: The melting point was 60 °C.

Q: With `CCC(=O)NCCc1c[nH]c2cc(Cl)c(OC)cc12` as the molecule, how does the melting point read?
A: Its melting point is 100 to 101 °C.

Q: For `O=C1N[C@H](Cc2ccc(C(F)(F)F)cc2)[C@H](c2ccccc2)O1` (racemic), which melting point is on record?
A: The melting point was 158 to 159 °C.

Q: Which melting point does the source give for `CC(C)(C)OC(=O)NC(Cc1ccccc1)C(O)C(N)Cc1ccccc1` (stereo unspecified) here?
A: The melting point was 134 to 135 °C.

Q: For `Clc1conc1OC1CN2CCC1CC2` (stereo unspecified), which melting point is on record?
A: Its melting point is 68 to 69 °C.

Q: With `Cc1cc(=O)n2cccc(OCc3ccccc3C(F)(F)F)c2n1` as the molecule, how does the melting point read?
A: The melting point was 130 to 132 °C.

Q: Which melting point does the source give for `CCSCc1cnn(-c2c(Cl)cc(C(F)(F)F)cc2Cl)n1` here?
A: The melting point was 53 to 54 °C.

Q: For `O=C1c2cc([N+](=O)[O-])ccc2CC2CCCCN12` (stereo unspecified), which melting point is on record?
A: Its melting point is 137 to 142 °C.

Q: With `CNS(=O)(=O)Nc1cc(-c2nn(C)c(OC(F)F)c2Cl)c(Cl)cc1Cl` as the molecule, how does the melting point read?
A: Its melting point is 133 °C.

Q: Which melting point does the source give for `COc1c(-c2nnc(Cc3ccc(F)cc3)o2)n(C)c2ccccc2c1=O` here?
A: Its melting point is 156 to 157 °C.

Q: For `O=c1c(Br)c(OCc2ccccc2)ccn1CCc1ccsc1`, which melting point is on record?
A: Its melting point is 134 °C.

Q: With `O=C(O)c1cnn2c(C(F)(F)F)cc(-c3ccc(C(F)(F)F)c(Cl)c3)nc12` as the molecule, how does the melting point read?
A: The melting point was 244 °C.

Q: With `c1ccc2nc(CCN3CCc4[nH]c5ccccc5c4C3)ccc2c1` as the molecule, how does the melting point read?
A: Its melting point is 195 to 197 °C.

Q: Which melting point does the source give for `COC(=O)[C@H]1CC[C@H](n2ccn(-c3ccc(C4(C)CCN(C(=O)C(F)(F)F)CC4)cc3)c2=O)CC1` here?
A: Its melting point is 182 to 184 °C.

Q: With `CS(=O)(=O)c1ccc(-c2cnn(-c3ccccc3C=O)c(=O)c2-c2ccc(F)cc2)cc1` as the molecule, how does the melting point read?
A: The melting point was 234 to 236 °C.

Q: With `Cc1ccc(C(Br)=NOS(C)(=O)=O)cc1` as the molecule, how does the melting point read?
A: Its melting point is 82.5 to 91.5 °C.
